ChEMBL document CHEMBL1201862, “PubChem BioAssay data set” (2004)
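Values below derive from 48-hour exposures of cells grown in 96-well plates, with endpoints linearly interpolated between the two concentrations bracketing the appropriate inhibition level. GI50 is the concentration that inhibits growth by half.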 Calls of active or inactive are those of the source. Cut-off read from the data, not from the text of the source: active = GI50 up to about 1.1 µM and inactive = higher.

Assays:
Assay in all cases: growth of human tumour cells (NCI), 48 h
MCF7 = tested on: MCF7
A498 = tested on: A498
SN12C = tested on: SN12C
K562 = tested on: K562
HOP-62 = tested on: HOP-62
SF-295 = tested on: SF-295
Hs-578T = tested on: Hs-578T
MDA-MB-231 = tested on: MDA-MB-231
A549 = tested on: A549
SF-268 = tested on: SF-268
SK-MEL-28 = tested on: SK-MEL-28
SW-620 = tested on: SW-620
MDA-MB-435 = tested on: MDA-MB-435
DU-145 = tested on: DU-145
U-251 = tested on: U-251
SNB-19 = tested on: SNB-19
SK-MEL-2 = tested on: SK-MEL-2
MDA-N = tested on: MDA-N
HCT-15 = tested on: HCT-15
HT-29 = tested on: HT-29

SMILES	GI50 (MCF7)	GI50 (A498)	GI50 (SN12C)	GI50 (K562)	GI50 (HOP-62)	GI50 (SF-295)	GI50 (Hs-578T)	GI50 (MDA-MB-231)	GI50 (A549)	GI50 (SF-268)	GI50 (SK-MEL-28)	GI50 (SW-620)	GI50 (MDA-MB-435)	GI50 (DU-145)	GI50 (U-251)	GI50 (SNB-19)	GI50 (SK-MEL-2)	GI50 (MDA-N)	GI50 (HCT-15) [µM]	GI50 (HT-29)
COc1ccc(C2CC(c3c(C)nn(-c4ccccc4)c3-c3ccc(C)cc3O)=NN2c2ccccc2)cc1 (stereo not given)	8.07 µM (inactive)	> 100 µM (inactive)	> 100 µM (inactive)	7.13 µM (inactive)	> 100 µM (inactive)	6.93 µM (inactive)	10.4 µM (inactive)	> 46.5 µM (inactive)	4.35 µM (inactive)	> 73.6 µM (inactive)	> 89.3 µM (inactive)	20.5 µM (inactive)	15 µM (inactive)	> 79.3 µM (inactive)	33.3 µM (inactive)	> 29 µM (inactive)	14.1 µM (inactive)	21.4 µM (inactive)	7.71	–
Cc1c(C#N)c2ccccc2c2nc3ccccc3n12	50.9 µM (inactive)	> 100 µM (inactive)	63.2 µM (inactive)	> 100 µM (inactive)	75.5 µM (inactive)	> 100 µM (inactive)	63 µM (inactive)	20.6 µM (inactive)	93.1 µM (inactive)	–	> 100 µM (inactive)	81.3 µM (inactive)	> 100 µM (inactive)	43.2 µM (inactive)	> 100 µM (inactive)	> 100 µM (inactive)	> 100 µM (inactive)	67.6 µM (inactive)	> 100	–
COc1ccc(C(=O)/C=C/c2ccc(OCC(=N)N)cc2)cc1	13.2 µM (inactive)	13.6 µM (inactive)	13.5 µM (inactive)	3.44 µM (inactive)	15.8 µM (inactive)	16.3 µM (inactive)	16.4 µM (inactive)	12.9 µM (inactive)	17.7 µM (inactive)	17.3 µM (inactive)	15.3 µM (inactive)	3.7 µM (inactive)	19.3 µM (inactive)	12.8 µM (inactive)	13.9 µM (inactive)	15.8 µM (inactive)	–	16.7 µM (inactive)	17.2	15.3 µM (inactive)
CCOC(=O)c1c(C)nc2c3ccccc3c(C#N)c(C)n12	> 100 µM (inactive)	> 100 µM (inactive)	> 100 µM (inactive)	> 100 µM (inactive)	26.2 µM (inactive)	34.9 µM (inactive)	32.9 µM (inactive)	14.3 µM (inactive)	50.1 µM (inactive)	–	> 100 µM (inactive)	> 100 µM (inactive)	> 100 µM (inactive)	74.8 µM (inactive)	70.8 µM (inactive)	> 100 µM (inactive)	> 100 µM (inactive)	> 10 µM (inactive)	> 100	–
CCn1c2ccc(O)c(C(=O)OC)c2c2cc3ccccc3c(O)c21	22.5 µM (inactive)	13.1 µM (inactive)	18.5 µM (inactive)	27.9 µM (inactive)	20.2 µM (inactive)	27.5 µM (inactive)	7.89 µM (inactive)	23.2 µM (inactive)	16.3 µM (inactive)	16.3 µM (inactive)	26.2 µM (inactive)	–	17 µM (inactive)	14.5 µM (inactive)	18 µM (inactive)	33 µM (inactive)	13.7 µM (inactive)	20.5 µM (inactive)	15.3	18.5 µM (inactive)
C=C(C)[C@H]1C2=CC(C)=C(O2)[C@@H](O[C@@H]2c3oc(cc3C)[C@H](C(=C)C)[C@H]3C=C(CC[C@H]2C(=C)C)C(=O)O3)[C@H](C(=C)C)CCC2=C[C@H]1OC2=O	> 100 µM (inactive)	> 100 µM (inactive)	> 100 µM (inactive)	> 100 µM (inactive)	81.1 µM (inactive)	> 100 µM (inactive)	> 100 µM (inactive)	> 100 µM (inactive)	> 100 µM (inactive)	> 100 µM (inactive)	> 100 µM (inactive)	> 100 µM (inactive)	> 100 µM (inactive)	> 100 µM (inactive)	> 100 µM (inactive)	> 100 µM (inactive)	> 100 µM (inactive)	> 100 µM (inactive)	> 100	–
CC(C)=C[C@H]1C[C@H](C)[C@H]2CC[C@H](C)c3c2c1c(C)c1ncoc31	15 µM (inactive)	19.9 µM (inactive)	19.5 µM (inactive)	21.4 µM (inactive)	–	17 µM (inactive)	17.6 µM (inactive)	20.4 µM (inactive)	14.9 µM (inactive)	19.5 µM (inactive)	18.7 µM (inactive)	15.3 µM (inactive)	17.8 µM (inactive)	18 µM (inactive)	16.8 µM (inactive)	14.6 µM (inactive)	14.9 µM (inactive)	17.5 µM (inactive)	19.1	–
C=C(C)[C@H]1C2=CC(C(=O)OC)=C(C[C@H](C(=C)C)[C@@H](O)[C@@H](O)C3=C[C@H]1OC3=O)O2	> 100 µM (inactive)	> 100 µM (inactive)	> 100 µM (inactive)	> 100 µM (inactive)	> 100 µM (inactive)	> 100 µM (inactive)	> 100 µM (inactive)	> 100 µM (inactive)	> 100 µM (inactive)	> 100 µM (inactive)	–	> 100 µM (inactive)	> 100 µM (inactive)	> 100 µM (inactive)	> 100 µM (inactive)	> 100 µM (inactive)	> 100 µM (inactive)	> 100 µM (inactive)	59.8	> 100 µM (inactive)
CN(/N=C/c1ccc(Cl)c(Cl)c1)C1=NCCN1	22.9 µM (inactive)	12.1 µM (inactive)	29.9 µM (inactive)	12.1 µM (inactive)	17.4 µM (inactive)	24.8 µM (inactive)	18.1 µM (inactive)	23 µM (inactive)	33.4 µM (inactive)	28.7 µM (inactive)	–	16 µM (inactive)	19.5 µM (inactive)	48.6 µM (inactive)	23.2 µM (inactive)	55.8 µM (inactive)	18.5 µM (inactive)	15.7 µM (inactive)	30.8	25.2 µM (inactive)
CC(NNC(=O)c1ccncc1)c1cccc(C(F)(F)F)c1 (stereo not given)	> 100 µM (inactive)	> 100 µM (inactive)	> 100 µM (inactive)	> 100 µM (inactive)	> 100 µM (inactive)	> 100 µM (inactive)	> 100 µM (inactive)	> 100 µM (inactive)	> 100 µM (inactive)	> 100 µM (inactive)	> 100 µM (inactive)	> 100 µM (inactive)	> 100 µM (inactive)	> 100 µM (inactive)	> 100 µM (inactive)	–	> 100 µM (inactive)	> 100 µM (inactive)	> 100	> 100 µM (inactive)
CCOP(=O)(OCC)C(C)(C)OC(=O)NC#N	> 100 µM (inactive)	–	> 100 µM (inactive)	> 100 µM (inactive)	> 100 µM (inactive)	> 100 µM (inactive)	> 100 µM (inactive)	> 100 µM (inactive)	> 100 µM (inactive)	> 100 µM (inactive)	> 100 µM (inactive)	> 100 µM (inactive)	> 100 µM (inactive)	> 100 µM (inactive)	> 100 µM (inactive)	> 100 µM (inactive)	> 100 µM (inactive)	> 100 µM (inactive)	> 100	> 100 µM (inactive)
C#CCOC(=O)c1ccccc1O	> 100 µM (inactive)	> 100 µM (inactive)	> 100 µM (inactive)	> 100 µM (inactive)	> 100 µM (inactive)	> 100 µM (inactive)	> 100 µM (inactive)	> 100 µM (inactive)	–	> 100 µM (inactive)	–	> 100 µM (inactive)	> 100 µM (inactive)	> 100 µM (inactive)	> 100 µM (inactive)	> 100 µM (inactive)	> 100 µM (inactive)	> 100 µM (inactive)	> 100	–
CCOC(=O)CC(=O)C(=O)NN=C1NCCCN1	> 100 µM (inactive)	–	> 100 µM (inactive)	> 100 µM (inactive)	> 100 µM (inactive)	> 100 µM (inactive)	> 100 µM (inactive)	> 100 µM (inactive)	> 100 µM (inactive)	> 100 µM (inactive)	> 100 µM (inactive)	> 100 µM (inactive)	> 100 µM (inactive)	> 100 µM (inactive)	> 100 µM (inactive)	> 100 µM (inactive)	> 100 µM (inactive)	> 100 µM (inactive)	> 100	> 100 µM (inactive)
CCCCCCc1cc2cc(C(=O)Nc3ccccc3)c(=N)oc2cc1O	4.35 µM (inactive)	26.2 µM (inactive)	2.42 µM (inactive)	–	2.76 µM (inactive)	3.05 µM (inactive)	3.21 µM (inactive)	3.36 µM (inactive)	3.27 µM (inactive)	4.85 µM (inactive)	6.87 µM (inactive)	3.97 µM (inactive)	3.53 µM (inactive)	4.82 µM (inactive)	2.99 µM (inactive)	3.33 µM (inactive)	2.45 µM (inactive)	3.88 µM (inactive)	3.45	3.28 µM (inactive)
CC(=O)c1c2n(n(-c3ccccc3)c1=O)C(=O)c1nccnc1-2	> 100 µM (inactive)	> 100 µM (inactive)	> 100 µM (inactive)	> 100 µM (inactive)	–	> 100 µM (inactive)	> 100 µM (inactive)	> 100 µM (inactive)	> 100 µM (inactive)	> 100 µM (inactive)	> 100 µM (inactive)	> 100 µM (inactive)	> 100 µM (inactive)	> 100 µM (inactive)	> 100 µM (inactive)	> 100 µM (inactive)	> 100 µM (inactive)	> 100 µM (inactive)	> 100	> 100 µM (inactive)
